Measured values published in the NIST ThermoML archive (doi:10.1016/j.jct.2014.05.019).

Assay: xn = mol fraction of the nth substance listed
Details: 100 kPa, Liquid; for electrical conductivity: Alternating current cell with electrodes; for viscosity: Falling or rolling sphere viscometry; for mass density: Vibrating tube method

NC(CO)C(=O)[O-].[Na+] (stereo not drawn) [sodium DL-serine] + O
Details	electrical conductivity [S/m]	mass density [kg/m3]	viscosity [mPa·s]
303.15 K, x1 = 0.009	2.7	1028.3	0.9965
303.15 K, x1 = 0.018	4.28	1060.1	1.221
303.15 K, x1 = 0.028	5.19	1090.9	1.552
303.15 K, x1 = 0.037	5.57	1121.1	1.967
303.15 K, x1 = 0.048	5.59	1150.7	2.599
303.15 K, x1 = 0.058	5.3	1181.9	–
303.15 K, x1 = 0.059	–	–	3.496
308.15 K, x1 = 0.009	2.98	1026.5	0.9018
308.15 K, x1 = 0.018	4.73	1058.1	1.097
308.15 K, x1 = 0.028	5.74	1088.8	1.377
308.15 K, x1 = 0.037	6.2	1118.7	1.739
308.15 K, x1 = 0.048	6.27	1148.2	2.28
308.15 K, x1 = 0.058	5.99	1179.2	–
308.15 K, x1 = 0.059	–	–	3.027
313.15 K, x1 = 0.009	3.27	1024.6	0.8058
313.15 K, x1 = 0.018	5.2	1055.9	0.9981
313.15 K, x1 = 0.028	6.3	1086.4	1.236
313.15 K, x1 = 0.037	6.82	1116.3	1.563
313.15 K, x1 = 0.048	6.96	1145.5	2.007
313.15 K, x1 = 0.058	6.69	1176.5	–
313.15 K, x1 = 0.059	–	–	2.661
318.15 K, x1 = 0.009	3.57	1022.5	0.7337
318.15 K, x1 = 0.018	5.64	1053.6	0.8941
318.15 K, x1 = 0.028	6.87	1084	1.116
318.15 K, x1 = 0.037	7.49	1113.7	1.394
318.15 K, x1 = 0.048	7.66	1142.8	1.792
318.15 K, x1 = 0.058	7.44	1173.7	–
318.15 K, x1 = 0.059	–	–	2.351
323.15 K, x1 = 0.009	3.87	–	0.6788
323.15 K, x1 = 0.018	6.12	–	0.8127
323.15 K, x1 = 0.028	7.46	–	1.012
323.15 K, x1 = 0.037	8.17	–	–
323.15 K, x1 = 0.048	8.38	–	–
323.15 K, x1 = 0.058	8.19	–	–
